This is an account of results in ChEMBL document CHEMBL4699521, “Design and synthesis of 4-Aminoquinoline-isoindoline-dione-isoniazid triads as potential anti-mycobacterials” (Bioorg Med Chem Lett, 2020).

Data set [1] has as its system Mycobacterium tuberculosis. Kind of data set: Antitubercular activity against Mycobacterium tuberculosis mc2 6230 assessed as minimum inhibitory concentration required to inhibit 99% of bacterial growth measured after 2 to 3 weeks. Particulars: time weeks 2-3. Format: functional.
Data set [2] has as its target T1, Enoyl-[acyl-carrier-protein] reductase [NADH] (Mycobacterium tuberculosis) (UniProt P9WGR1).
T1 sequence (whole entry): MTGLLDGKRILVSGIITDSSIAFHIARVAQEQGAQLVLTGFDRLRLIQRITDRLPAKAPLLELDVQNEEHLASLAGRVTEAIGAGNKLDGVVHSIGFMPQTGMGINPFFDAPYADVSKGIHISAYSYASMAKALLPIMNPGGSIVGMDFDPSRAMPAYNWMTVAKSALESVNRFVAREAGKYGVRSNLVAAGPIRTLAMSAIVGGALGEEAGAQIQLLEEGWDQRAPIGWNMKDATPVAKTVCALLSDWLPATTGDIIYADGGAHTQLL
The data set is described as follows: Inhibition of Mycobacterium tuberculosis mc2 6230 InhA assessed as antimycobacterial activity by measuring minimum inhibitory concentration required to inhibit 99% of bacterial growth.

Data set [3] relates to Vero. The data set is described as follows: Cytotoxicity against African green monkey Vero cells. Format: cell-based. The note with it: Chlorocebus sabaeus.
Data set [4] is described as follows: Selectivity index, ratio of IC50 for African green monkey Vero cells to MIC99 for Mycobacterium tuberculosis mc2 6230. Format: toxicity. Particulars: read-out: Selectivity Index.
In data set [5] the test system is Mycobacterium tuberculosis. The data set is described as follows: Antitubercular activity against Mycobacterium tuberculosis mc2 6230 assessed as minimum inhibitory concentration required to inhibit 99% of bacterial growth. Format: functional.
In data set [6] the test system is Mycobacterium tuberculosis. Kind of data set: Antitubercular activity against Mycobacterium tuberculosis mc2 6230 assessed as minimum inhibitory concentration required to inhibit 99% of bacterial growth incubated for 7 days by two-fold serial dilution method. Format: functional. Particulars: mc2 6230, 168 h, time 7 day.
Data set [7] concerns Vero. Kind of data set: Cytotoxicity against African green monkey Vero cells assessed as reduction in cell viability measured after 24 hrs by resazurin assay. Format: cell-based. The note with it: Chlorocebus sabaeus.
In data set [8] the test system is Mycobacterium tuberculosis. Kind of data set: Antimycobacterial activity against Mycobacterium tuberculosis H37Rv assessed as reduction in bacterial cell growth. Format: functional.
Data set [9] relates to Mycobacterium tuberculosis. The data set is described as follows: Antitubercular activity against Mycobacterium tuberculosis H37Rv assessed as reduction in bacterial cell growth measured after 7 days by alamar blue assay. Format: functional. Particulars: 168 h, time 7 day. For orientation: Resazurin is reduced to fluorescent resorufin, in cell work by metabolically active cells.

In brackets after ≈: the same amount, converted by molar mass.

Broadly, the MIC is the smallest concentration in the dilution series that meets the test's criterion for growth inhibition. As for `Cc1ccc(N2C(=O)C(NC(=O)CCNc3ccnc4cc(Cl)ccc34)[C@@H]2/C=C/c2ccccc2)cc1` (some centres not stated), in data set [1], the MIC was 9.8 µM (≈ 5.01 µg/mL).

Take `NNC(=O)c1ccncc1`: the MIC99 in [2] was found to be 0.07 µM (≈ 0.0096 µg/mL).

What is called IC50 is the midpoint of a concentration-inhibition curve. `O=C(NNC(=O)c1ccc2c(c1)C(=O)N(CCCCCCNc1ccnc3cc(Cl)ccc13)C2=O)c1ccncc1`: in data set [2], the MIC99 worked out at 21.9 µM (≈ 12.5 µg/mL). In the data set with Vero [3], this compound showed an IC50 of 128 µM. Further, the selectivity ratio in [4] is 5.8.

As to `O=C1c2ccccc2C(=O)N1CCCCCCCCNc1ccnc2cc(Cl)ccc12`, the MIC in data set [5] stood at 13.5 µM (≈ 5.89 µg/mL). Besides, the IC50 in the data set with Vero [3] came to 11.4 µM.

In the case of `O=C(CN1C(=O)c2ccc(F)cc2C1=O)NCCNc1ccnc2cc(Cl)ccc12`, in data set [6], the MIC is 14.6 µM (≈ 6.23 µg/mL). Further, the IC50 with Vero [7] was greater than 235 µM.

Turning to `O=C(NN1C(=O)c2c(F)c(F)c(F)c(F)c2C1=O)c1ccncc1`, in data set [8], the MIC amounted to 3.4 µM (≈ 1.15 µg/mL).

Turning to `O=C(O)c1ccc2c(c1)C(=O)N(CCCCNc1ccnc3cc(Cl)ccc13)C2=O`, the MIC99 in data set [2] stood at 236 µM (≈ 100 µg/mL). The compound also came in with an IC50 with Vero [3] of 40.1 µM. For the same compound, the selectivity ratio in data set [4] came to 0.16.

With `O=C1c2ccc(N3CCCCC3)cc2C(=O)N1CCCCNc1ccnc2cc(Cl)ccc12`, the MIC in [6] worked out at 13.5 µM (≈ 6.25 µg/mL). For the same compound, in the data set on Vero [7], the IC50 is greater than 216 µM.

For the compound `O=C(NNC(=O)c1ccc2c(c1)C(=O)N(CCCCNc1ccnc3cc(Cl)ccc13)C2=O)c1ccncc1`, the MIC99 in data set [2] was found to be 23 µM (≈ 12.5 µg/mL). The compound also came in with an IC50 in the data set on Vero [3] of 16.6 µM. Besides, the selectivity ratio in data set [4] came out at 0.7.

As for `O=C(Cn1cc(CN2C(=O)c3ccccc3C2=O)nn1)Nc1ccc(Br)cc1`, in data set [9], the MIC stood at 28.4 µM (≈ 12.5 µg/mL).

Take `O=C(O)c1ccc2c(c1)C(=O)N(CCCCCCNc1ccnc3cc(Cl)ccc13)C2=O`: the MIC99 in data set [2] is 222 µM (≈ 100 µg/mL). The same compound showed an IC50 in the data set with Vero [3] of 24.3 µM. Moreover, the selectivity ratio in data set [4] came to 0.11.

`O=C(NNC(=O)c1ccc2c(c1)C(=O)N(CCNc1ccnc3cc(Cl)ccc13)C2=O)c1ccncc1`: in data set [2], the MIC99 amounted to 389 µM (≈ 200 µg/mL). For the same compound, the half-inhibitory concentration (IC50) in the data set with Vero [3] is greater than 194 µM. In addition, in data set [4], the selectivity ratio is greater than 0.5.

In the case of `O=C(NN1C(=O)c2ccc(C(=O)OCCNc3ccnc4cc(Cl)ccc34)cc2C1=O)c1ccncc1`, in data set [2], the MIC99 was greater than 388 µM. Also, in the data set with Vero [3], the IC50 is greater than 194 µM. Moreover, the selectivity ratio in [4] was greater than 0.5.

With `O=C(O)c1ccc2c(c1)C(=O)N(CCCNc1ccnc3cc(Cl)ccc13)C2=O`, in data set [2], the MIC99 came to 489 µM (≈ 200 µg/mL). This compound returned an IC50 in the data set with Vero [3] of 242 µM. For the same compound, in data set [4], the selectivity ratio turned out to be 0.5.

Turning to `O=C(NNC(=O)c1ccc2c(c1)C(=O)N(CCCCCCCCNc1ccnc3cc(Cl)ccc13)C2=O)c1ccncc1`, the MIC99 in [2] was 5.1 µM (≈ 3.06 µg/mL). In the data set on Vero [3], this compound yielded an IC50 of 129 µM. Further, the selectivity ratio in data set [4] is 25.

Take `O=C(NCCCCNc1ccnc2cc(Cl)ccc12)c1ccc2c(c1)C(=O)N(NC(=O)c1ccncc1)C2=O`: in data set [2], the MIC99 is 23 µM (≈ 12.5 µg/mL). For the same compound, the IC50 with Vero [3] is 14.7 µM. Also, the selectivity ratio in data set [4] was found to be 0.6.

Turning to `O=C(NCCCNc1ccnc2cc(Cl)ccc12)c1ccc2c(c1)C(=O)N(NC(=O)c1ccncc1)C2=O`, the MIC99 in data set [2] stood at 5.8 µM (≈ 3.07 µg/mL). The compound also had an IC50 in the data set on Vero [3] of 161 µM. Also, the selectivity ratio in data set [4] is 27.

Turning to `O=C(NN1C(=O)c2ccc(C(=O)OCCCNc3ccnc4cc(Cl)ccc34)cc2C1=O)c1ccncc1`, the MIC99 in data set [2] amounted to 11.9 µM (≈ 6.31 µg/mL). The compound further gave an IC50 with Vero [3] greater than 194 µM. Further, in data set [4], the selectivity ratio was greater than 16.

Take `O=C(NCCCCCCNc1ccnc2cc(Cl)ccc12)c1ccc2c(c1)C(=O)N(NC(=O)c1ccncc1)C2=O`: the MIC99 in data set [2] came out at 11 µM (≈ 6.28 µg/mL). Further, in the data set on Vero [3], the IC50 was determined as 33.3 µM. Further, the selectivity ratio in [4] is 3.

Consider `O=C(NNC(=O)c1ccc2c(c1)C(=O)N(CCCNc1ccnc3cc(Cl)ccc13)C2=O)c1ccncc1`, for which, in data set [2], the MIC99 was determined as 47.3 µM (≈ 25 µg/mL). In the data set with Vero [3], this compound had an IC50 of 119 µM. For the same compound, the selectivity ratio in data set [4] came out at 2.5.

For `O=C(NNC(=O)c1ccc(N2C(=O)c3ccccc3C2=O)cc1)c1ccncc1`, the MIC99 in data set [2] stood at 129 µM (≈ 50 µg/mL). The compound also registered an IC50 in the data set on Vero [3] greater than 259 µM. In data set [4], the selectivity ratio is greater than 2.

For `O=C(O)c1ccc2c(c1)C(=O)N(CCNc1ccnc3cc(Cl)ccc13)C2=O`, the MIC99 in data set [2] is greater than 506 µM. In addition, the IC50 with Vero [3] is greater than 253 µM. In [4], the selectivity ratio was greater than 0.5.

For `O=C(NN1C(=O)c2ccc(N3CCN(c4ccnc5cc(Cl)ccc45)CC3)cc2C1=O)c1ccncc1`, the MIC99 in [2] was 6 µM (≈ 3.08 µg/mL). The compound also came in with an IC50 with Vero [3] greater than 195 µM. Moreover, in data set [4], the selectivity ratio was greater than 32.5.

With `O=C(NN1C(=O)c2cccc3cccc(c23)C1=O)c1ccncc1`, the MIC in data set [5] was greater than 631 µM.

As to `O=C(NCCNc1ccnc2cc(Cl)ccc12)c1ccc2c(c1)C(=O)N(NC(=O)c1ccncc1)C2=O`, the MIC99 in data set [2] is 6 µM (≈ 3.09 µg/mL). Also, the IC50 in the data set on Vero [3] is 64.1 µM. In [4], the selectivity ratio was found to be 10.6.

`O=C(CN1C(=O)c2ccccc2C1=O)NNC(=O)c1ccncc1`: in data set [2], the MIC99 amounted to 308 µM (≈ 100 µg/mL). This compound also registered an IC50 in the data set with Vero [3] greater than 308 µM. The selectivity ratio in data set [4] is greater than 1.

For `O=C(NCCCCCCCCNc1ccnc2cc(Cl)ccc12)c1ccc2c(c1)C(=O)N(NC(=O)c1ccncc1)C2=O`, in data set [2], the MIC99 was determined as 5.1 µM (≈ 3.06 µg/mL). Also, the IC50 in the data set on Vero [3] was greater than 167 µM. In addition, in data set [4], the selectivity ratio was greater than 32.7.

As to `O=C(O)c1ccc2c(c1)C(=O)N(CCCCCCCCNc1ccnc3cc(Cl)ccc13)C2=O`, the MIC99 in data set [2] was 417 µM (≈ 200 µg/mL). The same compound came in with an IC50 with Vero [3] greater than 209 µM. Moreover, the selectivity ratio in data set [4] is greater than 0.5.

As to `O=C1C(=O)N(CCCN2CCN(c3ccnc4cc(Cl)ccc34)CC2)c2ccc(F)cc21`, the MIC in data set [1] was less than 10.1 µM.
